The values below come from patent US11098032B2, “Pyran dervatives as CYP11A1 (cytochrome P450 monooxygenase 11A1) inhibitors” (ORION CORPORATION, priority 2016, dated 2021).

A word on the IC50: it is the concentration needed to halve the response being measured.

The experiment concerns the target T1, CYP11A1 (Homo sapiens, UniProt P05108).
T1 construct: human H295R adrenocortical carcinoma cell line was used as source of enzyme; endogenous in cells; host or cells: H295R human adrenocortical carcinoma cells
T1 sequence (P05108 40-521): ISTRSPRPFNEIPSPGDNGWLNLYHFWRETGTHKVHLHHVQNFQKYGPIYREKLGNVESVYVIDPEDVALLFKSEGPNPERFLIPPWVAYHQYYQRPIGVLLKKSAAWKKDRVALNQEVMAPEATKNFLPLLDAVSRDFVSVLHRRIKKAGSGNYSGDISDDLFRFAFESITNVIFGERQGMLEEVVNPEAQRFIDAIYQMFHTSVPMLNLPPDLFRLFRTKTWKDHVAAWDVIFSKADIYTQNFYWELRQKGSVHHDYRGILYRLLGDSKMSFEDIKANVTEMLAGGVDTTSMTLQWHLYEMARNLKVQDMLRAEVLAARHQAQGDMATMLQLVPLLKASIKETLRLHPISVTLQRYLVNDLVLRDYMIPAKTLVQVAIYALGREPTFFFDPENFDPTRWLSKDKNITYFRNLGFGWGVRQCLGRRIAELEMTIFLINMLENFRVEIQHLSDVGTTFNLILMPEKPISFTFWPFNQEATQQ
Description: CYP11A1 inhibition: modified isocaproic acid release assay (IARA) in H295R cells. Conditions: human H295R adrenocortical carcinoma cells treated three days, 3 nM [24,25-3H]-labelled cholesterol, 1% DMSO, 10 concentrations in duplicates; read-out: IC50 of the test compounds on CYP11A1 inhibition. Format: cell-based. The method in brief: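 H295R adrenocortical cells treated three days with test compounds at 10 concentrations in duplicate plus 3 nM [24,25-3H]-cholesterol, 1% DMSO final. Released radiolabelled isocaproic acid measured by scintillation counting after dextran-coated charcoal extraction; IC50 determined.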
For the molecule `NC(=O)c1ccc(COc2coc(CN3CCc4ccccc4C3)cc2=O)c(F)c1` [Compound 55, 4-(((6-((3,4-Dihydroisoquinolin-2(1H)-yl)methyl)-4-oxo-4H-pyran-3-yl)oxy)-methyl)-3-fluorobenzamide], the IC50 was 301 to 2000 nM.
With `CC(=O)N1CCC(CCOc2coc(CN3Cc4ccccc4C3)cc2=O)CC1` [Compound 206, 5-(2-(1-Acetylpiperidin-4-yl)ethoxy)-2-(isoindolin-2-ylmethyl)-4H-pyran-4-one] the figure was 301 to 2000 nM; with `CCN(CCO)S(=O)(=O)c1ccc(COc2coc(CN3Cc4ccccc4C3)cc2=O)cc1` [Compound 21, N-Ethyl-N-(2-hydroxyethyl)-4-(((6-(isoindolin-2-ylmethyl)-4-oxo-4H-pyran-3-yl)oxy)methyl)benzenesulfonamide], below 150 nM; with `COc1ccc(COc2coc(CN3CCc4ccccc4C3)cc2=O)cc1` [Compound 121, 2-((3,4-Dihydroisoquinolin-2(1H)-yl)methyl)-5-((4-methoxybenzyl)oxy)-4H-pyran-4-one], 150 to 300 nM.
Next, `CS(=N)(=O)c1ccc(COc2coc(CN3Cc4ccccc4C3)cc2=O)cc1` (centres unmarked) [Compound 86, 2-(Isoindolin-2-ylmethyl)-5-((4-(S-methylsulfonimidoyl)benzyl)oxy)-4H-pyran-4-one]: 150 to 300 nM.
Consider `CS(=O)(=O)c1ccc(COc2coc(CN3Cc4cc5c(cc4C3)OCO5)cc2=O)cc1` [Compound 66, 2-((5,7-Dihydro-6H-[1,3]dioxolo[4,5-f]isoindol-6-yl)methyl)-5-((4-(methyl-sulfonyl)benzyl)oxy)-4H-pyran-4-one], for which the IC50 was in the range of 301 to 2000 nM.
Next, `CC(C)CC(=O)C(=O)N1CCC(COc2coc(CN3Cc4ccccc4C3)cc2=O)CC1` [Compound 249, 1-(4-(((6-(Isoindolin-2-ylmethyl)-4-oxo-4H-pyran-3-yl)oxy)methyl)piperidin-1-yl)-4-methylpentane-1,2-dione]: below 150 nM.
Next, `Cc1ccc(S(=O)(=O)N=S2(=O)CCC(COc3coc(CN4Cc5ccccc5C4)cc3=O)CC2)cc1` (centres unmarked) [Compound 194, N-(4-(((6-(Isoindolin-2-ylmethyl)-4-oxo-4H-pyran-3-yl)oxy)methyl)-1-oxido-tetrahydro-2H-thiopyran-1-ylidene)-4-methylbenzenesulfonamide]: 150 to 300 nM; `CS(=N)(=O)C1CCC(COc2coc(CN3Cc4ccccc4C3)cc2=O)CC1` (centres unmarked) [Compound 240, 2-(Isoindolin-2-ylmethyl)-5-((4-(S-methylsulfonimidoyl)cyclohexyl)methoxy)-4H-pyran-4-one]: 301 to 2000 nM; `CN(C)C(=O)N1CCC(COc2coc(CN3Cc4ccc(F)cc4C3)cc2=O)CC1` [Compound 181, 4-(((6-((5-Fluoroisoindolin-2-yl)methyl)-4-oxo-4H-pyran-3-yl)oxy)methyl)-N,N-dimethylpiperidine-1-carboxamide]: 150 to 300 nM.
With `Cn1nccc1S(=O)(=O)N1CCC(COc2coc(CN3Cc4ccccc4C3)cc2=O)CC1` [Compound 255, 2-(Isoindolin-2-ylmethyl)-5-((1-((1-methyl-1H-pyrazol-5-yl)sulfonyl)piperidin-4-yl)methoxy)-4H-pyran-4-one] the figure was below 150 nM; with `N#Cc1ccc(COc2coc(CN3Cc4ccc(Br)cc4C3)cc2=O)cc1` [Compound 278, 4-((6-((5-Bromoisoindolin-2-yl)methyl)-4-oxo-4H-pyran-3-yloxy)methyl)benzonitrile], below 150 nM; with `CNC(=S)N1CCC(COc2coc(CN3Cc4ccccc4C3)cc2=O)CC1` [Compound 250, 4-(((6-(Isoindolin-2-ylmethyl)-4-oxo-4H-pyran-3-yl)oxy)methyl)-N-methyl-piperidine-1-carbothioamide], 150 to 300 nM.
With `O=C(N1CCC1)N1CCC(COc2coc(CN3Cc4ccccc4C3)cc2=O)CC1` [Compound 231, 5-((1-(Azetidine-1-carbonyl)piperidin-4-yl)methoxy)-2-(isoindolin-2-ylmethyl)-4H-pyran-4-one], the IC50 lay in the range of 150 to 300 nM.
Next, `COc1ccc2c(c1)CN(Cc1cc(=O)c(OCc3ccc(C(=O)N4CC(F)(F)C4)cc3)co1)C2` [Compound 162, 5-((4-(3,3-Difluoroazetidine-1-carbonyl)benzyl)oxy)-2-((5-methoxyisoindolin-2-yl)methyl)-4H-pyran-4-one]: below 150 nM.
Take `CC(C)CS(=O)(=O)N1CCC(COc2coc(CN3Cc4ccccc4C3)cc2=O)CC1` [Compound 271, 5-((1-(Isobutylsulfonyl)piperidin-4-yl)methoxy)-2-(isoindolin-2-ylmethyl)-4H-pyran-4-one]: the IC50 is below 150 nM.
Next, `O=c1cc(CN2Cc3ccccc3C2)occ1OCc1ccc([N+](=O)[O-])cc1` [Compound 38, 2-(Isoindolin-2-ylmethyl)-5-((4-nitrobenzyl)oxy)-4H-pyran-4-one]: 301 to 2000 nM; `O=C(NC1CC1)N1CCC(COc2coc(CN3Cc4ccccc4C3)cc2=O)CC1` [Compound 247, N-Cyclopropyl-4-(((6-(isoindolin-2-ylmethyl)-4-oxo-4H-pyran-3-yl)oxy)-methyl)piperidine-1-carboxamide]: 150 to 300 nM; `CC(C)S(=O)(=O)N1CCC(F)(COc2coc(CN3Cc4ccccc4C3)cc2=O)CC1` [Compound 236, 5-((4-Fluoro-1-(isopropylsulfonyl)piperidin-4-yl)methoxy)-2-(isoindolin-2-ylmethyl)-4H-pyran-4-one]: 150 to 300 nM.
Next, `CS(=O)(=O)N1CCC(F)(COc2coc(CN3Cc4ccccc4C3)cc2=O)CC1` [Compound 235, 5-((4-Fluoro-1-(methylsulfonyl)piperidin-4-yl)methoxy)-2-(isoindolin-2-yl-methyl)-4H-pyran-4-one]: 150 to 300 nM.
With `CCC(=O)N1CCC(COc2coc(CN3Cc4ccc(F)cc4C3)cc2=O)CC1` [Compound 224, 2-((5-Fluoroisoindolin-2-yl)methyl)-5-((1-propionylpiperidin-4-yl)methoxy)-4H-pyran-4-one] the figure was below 150 nM; with `CS(C)(=O)=NC(=O)c1ccc(COc2coc(CN3Cc4ccc(F)cc4C3)cc2=O)cc1` [Compound 84, N-[Dimethyl(oxido)-λ^6-sulfanylidene]-4-[({6-[(5-fluoro-1,3-dihydro-2H-iso-indol-2-yl)methyl]-4-oxo-4H-pyran-3-yl}oxy)methyl]benzamide], below 150 nM.
With `CC1c2ccccc2CCN1Cc1cc(=O)c(OCc2ccc(C(C)(C)O)cc2)co1` (centres unmarked) [Compound 59, 5-((4-(2-Hydroxypropan-2-yl)benzyl)oxy)-2-((1-methyl-3,4-dihydroisoquinolin-2(1H)-yl)methyl)-4H-pyran-4-one], the IC50 was 301 to 2000 nM.
With `CN(C)C(=O)c1ccc(CCOc2coc(CN3Cc4ccccc4C3)cc2=O)cc1` [Compound 112, 4-(2-((6-(Isoindolin-2-ylmethyl)-4-oxo-4H-pyran-3-yl)oxy)ethyl)-N,N-dimethylbenzamide] the figure was 301 to 2000 nM.
For the molecule `CS(=O)(=O)CC(=O)N1CCC(COc2coc(CN3Cc4ccccc4C3)cc2=O)CC1` [Compound 238, 2-(Isoindolin-2-ylmethyl)-5-((1-(2-(methylsulfonyl)acetyl)piperidin-4-yl)-methoxy)-4H-pyran-4-one], the IC50 is below 150 nM.
Next, `O=c1cc(CN2Cc3ccccc3C2)occ1OCc1ccc(-c2ccccn2)cc1` [Compound 165, 2-(Isoindolin-2-ylmethyl)-5-((4-(pyridin-2-yl)benzyl)oxy)-4H-pyran-4-one]: 150 to 300 nM; `CC(=O)N(C)S(=O)(=O)c1ccc(COc2coc(CN3Cc4ccccc4C3)cc2=O)cc1` [Compound 70, N-((4-(((6-(Isoindolin-2-ylmethyl)-4-oxo-4H-pyran-3-yl)oxy)methyl)phenyl)-sulfonyl)-N-methylacetamide]: below 150 nM; `CS(=O)(=O)N1CC[C@@H](COc2coc(CN3Cc4ccccc4C3)cc2=O)C1` [Compound 277, (R)-2-(Isoindolin-2-ylmethyl)-5-((1-(methylsulfonyl)pyrrolidin-3-yl)methoxy)-4H-pyran-4-one]: 301 to 2000 nM.
With `O=c1cc(CN2Cc3ccccc3C2)occ1OCc1ccc(C2(O)COC2)cc1` [Compound 114, 5-((4-(3-Hydroxyoxetan-3-yl)benzyl)oxy)-2-(isoindolin-2-ylmethyl)-4H-pyran-4-one] the figure was below 150 nM.
Next, `O=C(COc1coc(CN2Cc3ccccc3C2)cc1=O)N1CCN(c2ccc(Cl)cc2)CC1` [Compound 154, 5-(2-(4-(4-Chlorophenyl)piperazin-1-yl)-2-oxoethoxy)-2-(isoindolin-2-ylmethyl)-4H-pyran-4-one]: 301 to 2000 nM.
Turning to `O=c1cc(CN2Cc3ccc(F)cc3C2)occ1OCC1CCN(S(=O)(=O)C2CC2)CC1` [Compound 190, 5-((1-(Cyclopropylsulfonyl)piperidin-4-yl)methoxy)-2-((5-fluoroisoindolin-2-yl)methyl)-4H-pyran-4-one], the IC50 was below 150 nM.
With `O=c1cc(CN2Cc3ccccc3C2)occ1OCc1ccc(C(F)(F)F)nc1` [Compound 75, 2-(Isoindolin-2-ylmethyl)-5-((6-(trifluoromethyl)pyridin-3-yl)methoxy)-4H-pyran-4-one] the figure was 301 to 2000 nM.
